The nature of data set [1]: Solubility at pH 2. Conditions: pH 2, aqueous buffer, pH 2; read-out: Solubility At pH 2. It is filed as physicochemical.
For data set [2], the target named is T1, GR (Homo sapiens, UniProt P04150).
T1 sequence (P04150 1-777): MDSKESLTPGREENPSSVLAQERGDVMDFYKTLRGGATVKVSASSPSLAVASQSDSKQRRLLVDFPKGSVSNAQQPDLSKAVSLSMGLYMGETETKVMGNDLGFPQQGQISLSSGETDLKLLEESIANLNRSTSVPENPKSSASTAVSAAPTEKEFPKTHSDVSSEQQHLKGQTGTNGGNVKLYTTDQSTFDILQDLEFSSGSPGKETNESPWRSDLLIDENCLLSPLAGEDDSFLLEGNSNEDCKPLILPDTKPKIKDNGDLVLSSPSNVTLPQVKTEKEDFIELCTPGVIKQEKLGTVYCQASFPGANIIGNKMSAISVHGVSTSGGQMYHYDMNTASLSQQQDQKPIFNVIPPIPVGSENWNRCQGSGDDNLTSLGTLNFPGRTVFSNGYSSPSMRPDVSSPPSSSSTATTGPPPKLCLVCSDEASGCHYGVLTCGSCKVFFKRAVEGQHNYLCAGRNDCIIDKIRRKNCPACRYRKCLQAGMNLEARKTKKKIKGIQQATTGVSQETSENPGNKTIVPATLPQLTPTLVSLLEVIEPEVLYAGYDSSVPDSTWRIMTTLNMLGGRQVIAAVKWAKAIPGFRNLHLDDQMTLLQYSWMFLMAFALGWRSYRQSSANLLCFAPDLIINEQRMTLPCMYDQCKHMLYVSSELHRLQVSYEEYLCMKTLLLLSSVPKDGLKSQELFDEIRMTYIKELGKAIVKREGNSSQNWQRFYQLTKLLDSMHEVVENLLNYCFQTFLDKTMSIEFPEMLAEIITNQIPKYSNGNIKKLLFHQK
The experiment in a line: Trans-Activation Modulation of Glucocorticoid Receptor Assay (GRAMMER), MMTV-LUC reporter, A549 cells. The data set is classed as cell-based. Set-up: endogenous in cells. From the text:
Trans-Activation Modulation of Glucocorticoid Receptor Assay
This assay assesses the ability of test compounds to control transcription from the MMTV-LUC reporter gene in lung adenocarcinoma A549 cells or HeLa cells, a human […] cell line that naturally expresses the human GR. The assay measures induction of a modified MMTV LTR/promoter linked to the LUC reporter gene.
The routine transient assay consists of plating 7,000-25,000 cells/well of a white, clear-bottom 96-well plate. Alternatively, 384-well plates can be used at a cell concentration of 10,000/well. The media that the cells are plated in is “exponential growth medium” which consists of phenol red-free RPMI1640 containing 10% FBS, 4 mM L-glutamine, 20 mM HEPES, 10 ug/mL human insulin, and 20 ug/mL gentamicin. Incubator conditions are 37° C. and 5% CO2. The transfection is done in batch mode. The cells are trypsinized and counted to the right cell number in the proper amount of fresh media. It is then gently mixed with the FuGene6/DNA mix and plated onto the 96 or 384-well plate, all the wells receive 100 uL or 40 uL, respectively, of medium+lipid/DNA complex then incubated 37° C. overnight. The transfection cocktail consists of serum-free OptiMEM, FuGene6 reagent and DNA. The manufacturer's (Roche Biochemical) protocol for cocktail setup is as follows: The lipid to DNA ratio is approximately 2.5:1 and the incubation time is 20 min at room temperature. Sixteen to 24 hours after transfection, the cells are treated with dexamethasone to a final concentration of 10 nM as well as the compound of interest, such that final DMSO (vehicle) concentration is equal to or less than 1%. Each plate also contains samples that are treated with 10 nM dexamethasone alone, which is used as the 100% activity control. The cells are exposed to the compounds for 24 hours. After 24 hours, the cells are lysed by a Promega cell culture lysis buffer for approximately 30 min and then the luciferase activity in the extracts is assayed in the 96-well format luminometer. In 384-well format, Steady-Glo (Promega) or Steady-Lite (PerkinElmer) can be used by adding an equal volume of reagent to the media present in each well. […] Antagonist activity is calculated by determining the decrease in dexamethasone-induced activity in response to compound treatment relative to samples that were treated with dexamethasone alone. […] This transactivation assay can be performed in an agonist and antagonist mode to identify these different activities.
The action of compounds is also tested in an antagonist mode (Anti-GRAMMER) in which the cells are treated with medium containing an agonist such as 10 nM DEX and the ability to agents to inhibit the activation by an agonist is measured.

For one molecule, solubility, Emax and EC50 results are on record in patent US20120214846A1, “HEXAHYDROCYCLOPENTYL[F]INDAZOLE PYRIDYL ETHANOLS AND DERIVATIVES THEREOF AS SELECTIVE GLUCOCORTICOID RECEPTOR MODULATORS” (MERCK SHARP & DOHME CORP, priority 2009, published 2012).

In brackets after ≈: the same amount, converted by molar mass.

The term solubility denotes the concentration that dissolves in the medium under given conditions. For orientation: Emax means the maximal effect, on the per cent scale that the assay sets.

With `Cc1ccnc(C(O)C[C@]2(O)CCC3=Cc4c(cnn4-c4ccc(F)cc4)C[C@@]32C)c1` (stereo partly drawn) [Example 11, (4αS,5R)-1-(4-fluorophenyl)-5-[2-hydroxy-2-(4-methylpyridin-2-yl)ethyl]-4α-methyl-1,4,4α,5,6,7-hexahydrocyclopenta[f]indazol-5-ol], in data set [1], the solubility turned out to be 193 µM (≈ 81 µg/mL). Further, the Emax in data set [2] (A549, A549 cells, relative to 300 nM dexamethasone, read-out: Transactivation A549 Cells GRAMMER Emax) turned out to be 27.7%. In addition, the EC50 in data set [2] (A549 cells, inflection point, read-out: Transactivation A549 Cells GRAMMER IP) stood at 162 nM.
